Measured values as given in patent US20110190267A1, “PRODRUGS OF OPIOIDS AND USES THEREOF” (priority 2010, published 2011).
Where “and” joins values, the source holds several entries; their conditions need not be identical. Equal entries are not always repeated. Structures can show the parent of a compound that is named as a salt. Where two headings read alike, the source gives them in different places. Marks after values point to notes of the source that are not given here.

How the values were obtained:
[1] = Pharmacokinetics of R,R tapentadol or R,R tapentadol PABA carbamate, monkeys (Example 40); assay type: in vivo, cynomolgus monkeys; conditions: R,R tapentadol in plasma after oral R,R tapentadol, 3 mg free base equivalents/kg
Procedure: (§1) Blood samples were taken at various times after administration, and submitted to analysis for the parent drug and prodrug using a validated LC-MS-MS assay. Pharmacokinetic parameters derived from the plasma analytical data were determined using Win Nonlin.

[2] = Pharmacokinetics of R,R tapentadol or R,R tapentadol PABA carbamate, dogs (Example 41); assay type: in vivo, Beagle dogs; conditions: for AUC / Cmax / T>50%Cmax / Tmax / t½: RR-tapentadol in plasma after oral RR-tapentadol, 1 mg free base equivalents/kg, female beagle dogs
Procedure: as §1

[3] = Balikova et al. (2001); cited from earlier work
in vivo [4] = conditions: dog, read-out: Dog Oral Bioavailability (%)
Procedure: (§2) Blood samples were taken at various times after administration and submitted to analysis for the parent drug and prodrug using a validated LC-MS-MS assay. Pharmacokinetic parameters derived from the plasma analytical data were determined using Win Nonlin.

in vivo [5] = conditions: monkey, read-out: Monkey Oral Bioavailability (%)
Procedure: as §2

[6] = assay type: physicochemical
Procedure: Additionally the potential activation at blood pH of 7.4 was investigated over a similar period. The concentrations of the prodrug & drug were assayed by HPLC.

[7] = assay type: in vitro ADME
[8] = Pharmacokinetics of butorphanol or butorphanol PABA carbamate, monkeys (Example 43); assay type: in vivo, cynomolgus monkeys
Procedure: as §1

[9] = Pharmacokinetics of butorphanol or butorphanol PABA carbamate, dogs (Example 44); assay type: in vivo, beagle dogs; conditions: butorphanol in plasma after oral butorphanol, 0.5 mg butorphanol free base/kg, dog; for half-life: read-out: t½ (converted)
Procedure: Test substances, butorphanol or butorphanol_PABA carbamate were orally administered to two male beagle dogs at 0.5 mg butorphanol free base equivalents/kg in a parallel group study design.

[10] = Pharmacokinetics of racemic tapentadol or tapentadol PABA carbamate, monkeys (Example 39)
in vivo [11] = conditions: male, rat, plasma, po, 10 mg naloxone free base equivalents/kg, naloxone in plasma after oral naloxone, 10 mg free base equivalents/kg, male rats; for half-life: t½
Procedure: Blood samples were taken at various times after administration and submitted to analysis for the parent drug and pro-drug using a validated LC-MS-MS assay. Pharmacokinetic parameters derived from the plasma analytical data were determined using Win Nonlin.

[12] = simulated intestinal fluid pH 6.8, 37 C
[13] = naloxone in plasma after oral naloxone, 10 mg free base equivalents/kg, male rats, single animal

CC[C@@H](c1cccc(O)c1)[C@@H](C)CN(C)C [R,R tapentadol]
AUC ([1]; Mean): 7.6 ng·h/mL
Cmax ([1]; Mean): 2.2 ng/mL
T>50%Cmax ([1]; Mean): 2.8 h
Tmax ([1]; Mean): 1.1 h
t½ ([1]; Mean): 1.6 h
AUC ([1]; single animal): 10 ng·h/mL and 8.6 ng·h/mL and 7.7 ng·h/mL and 4.0 ng·h/mL
Cmax ([1]; single animal): 2.9 ng/mL and 2.6 ng/mL and 2.1 ng/mL and 1.1 ng/mL
T>50%Cmax ([1]; single animal): 2.8 h (2×) and 2.7 h and 2.9 h
Tmax ([1]; single animal): 0.5 h and 1.0 h (2×) and 2.0 h
t½ ([1]; single animal): 1.5 h (2×) and 1.7 h and 1.6 h
AUC ([2]; Mean): 4.16 ng·h/mL
Cmax ([2]; Mean): 3.21 ng/mL
T>50%Cmax ([2]; Mean): 0.7 h
Tmax ([2]; Mean): 0.44 h
t½ ([2]; Mean): 0.6 h
AUC ([2]; single animal): 1.74 ng·h/mL and 8.35 ng·h/mL and 2.38 ng·h/mL
Cmax ([2]; single animal): 1.25 ng/mL and 8.48 ng/mL and 0.39 ng/mL and 2.71 ng/mL
T>50%Cmax ([2]; single animal): 1.0 h and 0.6 h (2×)
Tmax ([2]; single animal): 0.50 h (3×) and 0.25 h
t½ ([2]; single animal): 0.7 h and 0.6 h and 0.5 h
T50% Cmax of R,R tapentadol ([2]; dogs, oral 1 mg R,R tapentadol free base equivalents/kg): 0.7 h

COc1ccc2c3c1O[C@H]1[C@@H](O)CC[C@H]4[C@@H](C2)N(C)CC[C@@]341 [dihydrocodeine]
oral dose converted to dihydromorphine [3]: less than 2%

CCC1(c2cccc(O)c2)CCCCN(C)C1 (stereo not shown) [Meptazinol HCl (oral), Meptazinol HCl]
bioavailability (in vivo [4]): 6 ± 2.1%
bioavailability (in vivo [5]): 1.8 ± 0.2%

CCC1(c2cccc(OC(=O)N[C@H](C(=O)O)C(C)C)c2)CCCCN(C)C1 (stereo partly shown) [Meptazinol-valine carbamate]
Chemical stability at pH 7.4 ([6]; pH 7.4): ~100%

CCC1(c2cccc(OC(=O)NC(CCSC)C(=O)O)c2)CCCCN(C)C1 (stereo not shown) [Meptazinol methionine carbamate]
Biological/chemical stability - SIF - pH 6.8, 37 C. % prodrug remaining at 2 h ([7]; simulated gi fluid, pH 6.8): 100%
Chemical Stability, % prodrug remaining at 2 h, pH 10.0 ([6]; buffer, 2 h, pH 10): 60% pH 10.0

CCC1(c2cccc(OC(=O)NC(C(=O)O)C(C)C)c2)CCCCN(C)C1 [Meptazinol (R)-valine carbamate]
Biological/chemical stability - SIF - pH 6.8, 37 C. % prodrug remaining at 2 h [7, 12]: 74%
Chemical Stability - pH 7.4, 37° C. % prodrug remaining at 2 h ([6]; pH 7.4, 37° C, 2 h): 96%

CCC1(c2cccc(OC(=O)NC(C(=O)O)C(C)C)c2)CCCCN(C)C1 [Meptazinol (S) valine carbamate]
Biological/chemical stability - SIF - pH 6.8, 37 C. % prodrug remaining at 2 h [7, 12]: 99%
Chemical Stability, % prodrug remaining at 2 h, pH 10.0 ([6]; pH 10.0, 37° C, 2 h): 66% pH 10.0

Oc1ccc2c(c1)[C@@]13CCCC[C@@]1(O)[C@@H](C2)N(CC1CCC1)CC3 [butorphanol]
Cmax ([8]; butorphanol in plasma after oral butorphanol, 1.0 mg butorphanol free base/kg, monkey, single animal, below the LLOQ of 0.1 ng/mL): <0.1* ng/mL
AUC ([8]; male, cynomolgus monkey, 1 mg butorphanol free base equivalents/kg, butorphanol in plasma after oral butorphanol, 1.0 mg butorphanol free base/kg, Average, estimate of maximal systemic exposure): 0.62 ng·h/mL
Tmax ([8]; male, cynomolgus monkey, 1 mg butorphanol free base equivalents/kg, butorphanol in plasma after oral butorphanol, 1.0 mg butorphanol free base/kg, Average, plasma concentrations below the LLOQ of 0.1 ng/mL): 0.5 h
half-life ([8]; male, cynomolgus monkey, plasma, 1 mg butorphanol free base equivalents/kg, butorphanol, oral butorphanol 1.0 mg free base/kg, Average, value after giving prodrug and used for estimating maximal systemic exposure, read-out: t½ (converted)): 6.1 h
Cmax ([8]; male, cynomolgus monkey, plasma, po, 1 mg butorphanol free base equivalents/kg, butorphanol in plasma after oral butorphanol, 1.0 mg butorphanol free base/kg, Average, plasma concentrations below the LLOQ of 0.1 ng/mL, read-out: Cmax): 0.1 ng/mL
Cmax ([8]; male, cynomolgus monkey, plasma, po, 1 mg butorphanol free base equivalents/kg, butorphanol in plasma after oral butorphanol, 1.0 mg butorphanol free base/kg, single animal, below the LLOQ of 0.1 ng/mL, read-out: Cmax): < 0.1 ng/mL
T>50%Cmax ([9]; Average): 2.0 h
AUC ([9]; single animal): 1.80 ng·h/mL
Cmax ([9]; single animal): 0.56 ng/mL
T>50%Cmax ([9]; single animal): 1.6 h and 2.4 h
Tmax ([9]; single animal): 1.00 h
t½ ([9]; single animal): 1.7 h
AUC ([9]; male, beagle, plasma, po, 0.5 mg/kg, Average, read-out: AUC): 2.05 ng·h/mL
Cmax ([9]; male, beagle, plasma, po, 0.5 mg/kg, Average, read-out: Cmax): 0.73 ng/mL
Tmax ([9]; male, beagle, plasma, po, 0.5 mg/kg, Average, read-out: Tmax): 0.75 h
half-life ([9]; male, beagle, plasma, po, 0.5 mg/kg, Average): 1.6 h
AUC ([9]; male, beagle, plasma, po, 0.5 mg/kg, single animal, read-out: AUC): 2.3 ng·h/mL
Cmax ([9]; male, beagle, plasma, po, 0.5 mg/kg, single animal, read-out: Cmax): 0.9 ng/mL
Tmax ([9]; male, beagle, plasma, po, 0.5 mg/kg, single animal, read-out: Tmax): 0.5 h
half-life ([9]; male, beagle, plasma, po, 0.5 mg/kg, single animal): 1.6 h

CC[C@@H](c1cccc(O)c1)[C@@H](C)CN(C)C [tapentadol]
half-life ([10]; cynomolgus monkey, plasma, po, 3 mg/kg): 1.2 h
AUC ([10]; male, cynomolgus monkey, plasma, po, 1 mg free base equivalents/kg): 5.4 ng·h/mL
Cmax ([10]; male, cynomolgus monkey, plasma, po, 1 mg free base equivalents/kg, Cmax * (estimated), racemic tapentadol (all four isomers), oral tapentadol scaled up from 1 to 3 mg free base equivalents/kg, monkeys, n = 5, LLOQ taken as Cmax): 2.4 ng/mL
AUC ([10]; male, cynomolgus monkey, plasma, po, 1 mg/kg tapentadol free base equivalents/kg): < 5.4 ng·h/mL
plasma concentrations of tapentadol, each isomer (LLOQ) ([10]; oral tapentadol 1 mg/kg, monkeys): < 0.4 ng/mL
Cmax * (estimated) ([10]; racemic tapentadol (all four isomers), oral tapentadol scaled up from 1 to 3 mg free base equivalents/kg, monkeys, n = 5, LLOQ taken as Cmax): <2.4 ng/mL

C=CCN1CC[C@]23c4c5ccc(O)c4O[C@H]2C(=O)CC[C@@]3(O)[C@H]1C5 [naloxone]
T>50%Cmax (naloxone in plasma after oral naloxone, 10 mg free base equivalents/kg, male rats, Mean): 2.1 h
Cmax [13]: 6.3 ng/mL and 7.6 ng/mL and 8.1 ng/mL and 4.9 ng/mL
T>50%Cmax [13]: 1.2 h and 1.5 h and 1.8 h and 1.3 h and 4.5 h
Tmax [13]: 0.50 h
t½ [13]: 3.8 h
variability around bioavailability of naloxone (rats, oral 10 mg/kg): over 10%
AUC (in vivo [11]; Mean): 22 ng·h/mL
AUC (in vivo [11]; single animal): 22 ng·h/mL
Cmax (in vivo [11]; Mean): 6.8 ng/mL
Cmax (in vivo [11]; single animal): 7.1 ng/mL
Tmax (in vivo [11]; Mean): 0.35 h
Tmax (in vivo [11]; single animal): 0.25 h
half-life (in vivo [11]; Mean): 3.9 h
half-life (in vivo [11]; single animal): 3.9 h

CCC(C)C(NC(=O)Oc1cccc(C2(CC)CCCCN(C)C2)c1)C(=O)O (stereo not shown) [Meptazinol isoleucine carbamate]
Biological/chemical stability - SIF - pH 6.8, 37 C. % prodrug remaining at 2 h [7, 12]: 99%
Chemical Stability, % prodrug remaining at 2 h, pH 10.0 ([6]; pH 10.0, 37° C, 2 h): 73% pH 10.0
